ChEMBL document CHEMBL5360537, “From lead to clinic: A review of the structural design of P2X7R antagonists” (Eur J Med Chem, 2023)
pIC50: −log10 of the molar value.

Key:
P2X purinoceptor 7 [1] = molecular target: T1, P2X purinoceptor 7 (Homo sapiens, UniProt Q99572); assay: Antagonist activity at human P2X7 receptor expressed in 1321N1 cells by FLIPR assay; format: cell-based
T1 sequence (Q99572 whole entry): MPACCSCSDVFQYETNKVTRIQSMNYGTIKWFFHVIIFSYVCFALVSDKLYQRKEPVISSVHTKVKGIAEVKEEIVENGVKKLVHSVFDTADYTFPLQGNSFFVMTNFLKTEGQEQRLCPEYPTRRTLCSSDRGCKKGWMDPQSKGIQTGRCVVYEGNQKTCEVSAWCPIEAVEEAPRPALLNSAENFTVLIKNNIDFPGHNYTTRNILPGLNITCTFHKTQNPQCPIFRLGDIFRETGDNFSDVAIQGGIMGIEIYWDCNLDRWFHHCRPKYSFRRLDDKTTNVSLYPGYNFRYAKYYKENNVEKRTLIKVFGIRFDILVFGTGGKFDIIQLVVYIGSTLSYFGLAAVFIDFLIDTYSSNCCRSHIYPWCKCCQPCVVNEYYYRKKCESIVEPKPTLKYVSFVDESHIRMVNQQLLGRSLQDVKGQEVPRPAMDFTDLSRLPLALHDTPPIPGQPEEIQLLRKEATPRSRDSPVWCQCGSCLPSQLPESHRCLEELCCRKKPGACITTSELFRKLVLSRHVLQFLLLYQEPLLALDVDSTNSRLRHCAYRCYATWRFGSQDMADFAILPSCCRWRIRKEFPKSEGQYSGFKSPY

[2] = AUC(0 to 6 hrs) in Han Wistar rat Brain at 1 mg/kg, iv measured upto 6 hrs by liquid chromatography tandem mass spectrometry; format: ADME, organism-based; parameters: time < 6 hrs, dose 1 mg/kg, route iv
[3] = Half life in Han Wistar rat plasma at 1 mg/kg, iv measured upto 6 hrs by liquid chromatography tandem mass spectrometry; format: ADME, organism-based
[4] = Half life in Han Wistar rat Brain at 1 mg/kg, iv measured upto 6 hrs by liquid chromatography tandem mass spectrometry; format: ADME, organism-based
[5] = AUC(0 to 6 hrs) in Han Wistar rat plasma at 1 mg/kg, iv measured upto 6 hrs by liquid chromatography tandem mass spectrometry; format: ADME, organism-based; parameters: time < 6 hrs, dose 1 mg/kg, route iv
[6] = molecular target: T2, P2X purinoceptor 7 (Mus musculus) (UniProt Q9Z1M0); assay: Antagonist activity at P2X7 receptor in mouse Peritoneal macrophage cells assessed as ATP induced dye uptake at 10 uM relative to control; format: cell-based
T2 sequence (whole entry): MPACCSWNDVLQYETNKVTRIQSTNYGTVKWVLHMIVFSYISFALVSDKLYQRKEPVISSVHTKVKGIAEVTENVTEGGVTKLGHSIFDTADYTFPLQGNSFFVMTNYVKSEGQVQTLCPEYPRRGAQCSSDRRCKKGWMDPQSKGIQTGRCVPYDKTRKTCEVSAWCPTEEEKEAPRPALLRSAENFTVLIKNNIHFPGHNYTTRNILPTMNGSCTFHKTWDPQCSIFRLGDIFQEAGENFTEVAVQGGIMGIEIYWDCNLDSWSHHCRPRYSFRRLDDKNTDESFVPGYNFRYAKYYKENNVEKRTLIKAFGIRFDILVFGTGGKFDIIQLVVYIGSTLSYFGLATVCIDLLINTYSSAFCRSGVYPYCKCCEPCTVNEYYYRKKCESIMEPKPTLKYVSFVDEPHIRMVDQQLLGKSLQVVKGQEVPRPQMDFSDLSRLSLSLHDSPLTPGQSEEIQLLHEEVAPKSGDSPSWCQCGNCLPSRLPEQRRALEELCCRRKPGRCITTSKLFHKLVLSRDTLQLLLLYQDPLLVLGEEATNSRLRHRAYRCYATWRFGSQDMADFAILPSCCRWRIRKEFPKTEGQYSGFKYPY

[7] = Half life in human liver microsomes; format: ADME, Microsome
P2X purinoceptor 7 [8] = molecular target: T1, P2X purinoceptor 7; assay: Antagonist activity at P2X7 in human THP-1 cells; format: cell-based
P2X purinoceptor 7 [9] = molecular target: T1, P2X purinoceptor 7; assay: Antagonist activity at recombinant human P2X7 receptor expressed in 1321N1 cells measured after 30 mins by fluorescence based calcium flux assay; format: cell-based
P2X purinoceptor 7 [10] = molecular target: T1, P2X purinoceptor 7; assay: Inhibition of human P2X7 receptor transfected in HEK293 cells by calcium influx assay; format: cell-based
P2X purinoceptor 7 [11] = molecular target: T1, P2X purinoceptor 7; assay: Antagonist activity at P2X7 receptor in human THP-1 cells assessed as reduction in ATP induced IL-1 beta release; format: cell-based
P2X purinoceptor 7 [12] = molecular target: T3, P2X purinoceptor 7 (Mus musculus, UniProt Q9Z1M0); assay: Antagonist activity at P2X7 receptor in mouse Peritoneal macrophage cells assessed as reduction in ATP induced IL-1 beta release; format: cell-based
T3 sequence (Q9Z1M0 whole entry): T2 sequence (whole entry)

P2X purinoceptor 7 [13] = molecular target: T3, P2X purinoceptor 7; assay: Inhibition of mouse P2X7 receptor expressed in HEK293 cells incubated for 5 mins followed by Bz-ATP addition measured after 3 mins by fluorescence based assay; format: cell-based
P2X purinoceptor 7 [14] = molecular target: T1, P2X purinoceptor 7; assay: Inhibition of human P2X7 receptor expressed in HEK293 cells incubated for 5 mins followed by Bz-ATP addition measured after 3 mins by fluorescence based assay; format: cell-based
P2X purinoceptor 7 [15] = molecular target: T1, P2X purinoceptor 7; assay: Antagonist activity at human P2X7 receptor expressed in HEK293 by fluorescence plate reader analysis; format: cell-based

In the case of Cn1nccc1Nc1nc(=O)c(F)cn1Cc1cc(F)c(F)c(F)c1, the pIC50 (P2X purinoceptor 7 [1]) was < 7.00.

With Cc1ccc(CO)cc1Nc1nc(=O)ccn1Cc1cc(F)c(F)c(F)c1 the pIC50 (P2X purinoceptor 7 [1]) was 8.40.

For COc1ccc(Cl)c(C(=O)NCC23CC4CC(CC(C4)C2)C3)c1, the AUC(0-t) at 6 h [2] was 221 ng·h/mL, the half-life [3] was 28.2 min and the half-life [4] was 9.6 min. For the same compound, the AUC(0-t) at 6 h [5] was 186 ng·h/mL.

For CC1=C(C(c2ccc(Br)cc2)n2cc(COCc3ccco3)nn2)C(=O)c2ccccc2C1=O (centres undefined), the inhibition [6] was < 60%.

Work on Cc1ccc2c(=O)n(C(C)CO)ccc2c1NC(=O)Cc1ccc(C(F)(F)F)c(F)c1 (centres undefined) yielded a half-life [7] of 55.8 min and a pIC50 (P2X purinoceptor 7 [8]) of 8.03.

Compound O=C(OCC1c2ncn(-c3ccccc3)c2CCN1C(=O)c1cccc(C(F)(F)F)c1Cl)c1cccc(C(F)(F)F)c1Cl (centres undefined) has a pIC50 (P2X purinoceptor 7 [9]) of 8.51.

With O=C1CO[C@]2(CC[C@@](F)(C(=O)NCc3ccc(Cl)cc3Cl)c3cccnc32)CN1 the pIC50 (P2X purinoceptor 7 [10]) was > 7.30.

With O=C1CCC(C(=O)NCc2cccc(C(F)(F)F)c2Cl)c2cccnc21 (centres undefined) the pIC50 (P2X purinoceptor 7 [10]) was > 7.30.

In the case of CC1=C(C(c2ccccc2)n2cc(COCc3ccco3)nn2)C(=O)c2ccccc2C1=O (centres undefined), the pIC50 (P2X purinoceptor 7 [11]) was 3.86, the inhibition ([6]; filed as antagonist) was 60% and the pIC50 (P2X purinoceptor 7 [12]) was 3.84.

With Cc1ccc(N2CCCC2=O)cc1Nc1nc(=O)cnn1Cc1cc(F)c(F)c(F)c1 the pIC50 (P2X purinoceptor 7 [1]) was 8.24.

In the case of CS(=O)(=O)C[C@]1(O)CC[C@@](F)(C(=O)NCc2ccc(Cl)cc2Cl)c2cccnc21, the pIC50 (P2X purinoceptor 7 [10]) was > 7.30.

Compound CC1=C(C(c2ccc([N+](=O)[O-])cc2)n2cc(COCc3ccco3)nn2)C(=O)c2ccccc2C1=O (centres undefined) has a pIC50 (P2X purinoceptor 7 [11]) of 3.74, an inhibition ([6]; filed as antagonist) of 60% and a pIC50 (P2X purinoceptor 7 [12]) of 3.73.

CC1=C(Cn2cc(COCc3ccco3)nn2)C(=O)c2ccccc2C1=O showed a pIC50 (P2X purinoceptor 7 [11]) of 3.73, an inhibition ([6]; filed as antagonist) of 60% and a pIC50 (P2X purinoceptor 7 [12]) of 3.80.

With O=C(NCc1cccc(C(F)(F)F)c1Cl)C1(F)CCC(O)c2ncccc21 (centres undefined) the pIC50 (P2X purinoceptor 7 [10]) was > 7.30.

Work on O=C(NCC(c1scnc1C(F)F)N1CCC(Oc2cccc(Cl)n2)CC1)c1c(F)cccc1Cl (centres undefined) yielded a pIC50 (P2X purinoceptor 7 [13]) of 7.87 and a pIC50 (P2X purinoceptor 7 [14]) of 7.95.

In the case of COCCn1cc(C(=O)NCc2ccc3c(c2)OCO3)c2c(Cl)cccc21, the pIC50 (P2X purinoceptor 7 [15]) was < 6.00.

COc1ccc(C)c(Nc2nc(=O)cnn2Cc2cncc(F)c2)c1 showed a pIC50 (P2X purinoceptor 7 [1]) of 7.00.

With O=C(NCc1ccc(F)cc1Cl)[C@]1(F)CC[C@H](OCCO)c2ncccc21 the pIC50 (P2X purinoceptor 7 [10]) was > 7.30.
